Where two headings read alike, the source gives them in different places.
Target: T1, BRAF V600E (Homo sapiens, UniProt P15056+Q96SW2, V600E)
T1 construct: knock-in of the HiBiT tag to the endogenous BRAF V600E locus; host or cells: A375.10 (A375 clonal line, CRISPR HiBiT knock-in at the endogenous BRAF V600E locus)
Test: BRAF V600E HiBiT Degradation Assay
Type: cell-based
In short: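 Endogenous HiBiT knock-in on BRAF V600E in A375 cells (clone A375.10); 11-point half-log series, top 10 μM, 2, 6 or 24 h at 37° C. Lytic HiBiT luminescence, background-subtracted, normalized to DMSO; 4-parameter fit gives DC50, Emax (residual protein) and IP (inflection point).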

[1] = A375.10 cells, BRAF V600E, 2 hours, inflection point, read-out: HiBiT-Degradation A375.10 BRAF 2 hours IP
[2] = A375.10 cells, BRAF V600E, 2 hours, read-out: HiBiT-Degradation A375.10 BRAF 2 hours DC50
[3] = A375.10 cells, BRAF V600E, 6 hours, inflection point, read-out: HiBiT-Degradation A375.10 BRAF 6 hours IP
[4] = A375.10 cells, BRAF V600E, 6 hours, read-out: HiBiT-Degradation A375.10 BRAF 6 hours DC50
[5] = A375.10 cells, BRAF V600E, 6 hours, residual protein remaining, read-out: HiBiT-Degradation A375.10 BRAF 6 hours Emax
[6] = A375.10 cells, HiBiT, BRAF V600E, 24 hours, read-out: HiBiT-Degradation A375.10 BRAF 24 hours DC50
[7] = A375.10 cells, HiBiT, BRAF V600E, 24 hours, read-out: HiBiT-Degradation A375.10 BRAF 24 hours Emax
[8] = A375.10 cells, HiBiT, BRAF V600E, 24 hours, read-out: HiBiT-Degradation A375.10 BRAF 24 hours IP
[9] = read-out: HiBiT-Degradation A375.10 BRAF 2 hours Emax, A375.10 cells, BRAF V600E, 2 hours, residual protein remaining
[10] = A375.10 cells, BRAF V600E, 2 hours, residual protein remaining, read-out: HiBiT-Degradation A375.10 BRAF 2 hours Emax

T1 sequence (P15056 whole entry V600E): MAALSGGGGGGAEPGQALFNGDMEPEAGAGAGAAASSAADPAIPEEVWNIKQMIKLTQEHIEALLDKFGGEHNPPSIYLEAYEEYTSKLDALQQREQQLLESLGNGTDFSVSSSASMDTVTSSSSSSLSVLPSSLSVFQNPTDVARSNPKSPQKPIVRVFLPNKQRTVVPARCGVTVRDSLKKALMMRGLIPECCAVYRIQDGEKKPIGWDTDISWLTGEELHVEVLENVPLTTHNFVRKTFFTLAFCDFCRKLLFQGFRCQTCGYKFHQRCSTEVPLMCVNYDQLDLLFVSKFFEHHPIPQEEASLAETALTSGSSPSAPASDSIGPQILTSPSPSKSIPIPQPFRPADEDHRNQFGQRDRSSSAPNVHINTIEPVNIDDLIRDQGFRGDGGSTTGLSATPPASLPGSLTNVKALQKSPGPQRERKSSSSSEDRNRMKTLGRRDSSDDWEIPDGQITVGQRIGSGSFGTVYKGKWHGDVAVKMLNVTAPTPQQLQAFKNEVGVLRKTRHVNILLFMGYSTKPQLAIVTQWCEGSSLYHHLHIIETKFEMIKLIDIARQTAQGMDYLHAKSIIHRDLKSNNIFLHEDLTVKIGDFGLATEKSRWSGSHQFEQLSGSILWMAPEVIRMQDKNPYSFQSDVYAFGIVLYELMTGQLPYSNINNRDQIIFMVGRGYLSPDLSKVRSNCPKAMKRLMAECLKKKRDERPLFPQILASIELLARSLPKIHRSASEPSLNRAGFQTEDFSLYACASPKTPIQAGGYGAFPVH
T1 sequence (Q96SW2 whole entry): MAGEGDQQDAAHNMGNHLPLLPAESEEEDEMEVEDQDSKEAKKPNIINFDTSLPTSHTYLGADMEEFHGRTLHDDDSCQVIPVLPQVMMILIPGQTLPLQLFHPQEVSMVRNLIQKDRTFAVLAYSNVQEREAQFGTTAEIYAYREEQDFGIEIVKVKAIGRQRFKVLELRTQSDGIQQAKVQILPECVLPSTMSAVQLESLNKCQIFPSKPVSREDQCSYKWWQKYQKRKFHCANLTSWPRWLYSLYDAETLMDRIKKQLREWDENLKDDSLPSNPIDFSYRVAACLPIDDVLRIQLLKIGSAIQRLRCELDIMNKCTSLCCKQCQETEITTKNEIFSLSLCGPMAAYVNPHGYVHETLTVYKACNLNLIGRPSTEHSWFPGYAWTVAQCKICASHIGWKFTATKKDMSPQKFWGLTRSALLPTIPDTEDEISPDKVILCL
T1 sequence (Q16531 whole entry partner): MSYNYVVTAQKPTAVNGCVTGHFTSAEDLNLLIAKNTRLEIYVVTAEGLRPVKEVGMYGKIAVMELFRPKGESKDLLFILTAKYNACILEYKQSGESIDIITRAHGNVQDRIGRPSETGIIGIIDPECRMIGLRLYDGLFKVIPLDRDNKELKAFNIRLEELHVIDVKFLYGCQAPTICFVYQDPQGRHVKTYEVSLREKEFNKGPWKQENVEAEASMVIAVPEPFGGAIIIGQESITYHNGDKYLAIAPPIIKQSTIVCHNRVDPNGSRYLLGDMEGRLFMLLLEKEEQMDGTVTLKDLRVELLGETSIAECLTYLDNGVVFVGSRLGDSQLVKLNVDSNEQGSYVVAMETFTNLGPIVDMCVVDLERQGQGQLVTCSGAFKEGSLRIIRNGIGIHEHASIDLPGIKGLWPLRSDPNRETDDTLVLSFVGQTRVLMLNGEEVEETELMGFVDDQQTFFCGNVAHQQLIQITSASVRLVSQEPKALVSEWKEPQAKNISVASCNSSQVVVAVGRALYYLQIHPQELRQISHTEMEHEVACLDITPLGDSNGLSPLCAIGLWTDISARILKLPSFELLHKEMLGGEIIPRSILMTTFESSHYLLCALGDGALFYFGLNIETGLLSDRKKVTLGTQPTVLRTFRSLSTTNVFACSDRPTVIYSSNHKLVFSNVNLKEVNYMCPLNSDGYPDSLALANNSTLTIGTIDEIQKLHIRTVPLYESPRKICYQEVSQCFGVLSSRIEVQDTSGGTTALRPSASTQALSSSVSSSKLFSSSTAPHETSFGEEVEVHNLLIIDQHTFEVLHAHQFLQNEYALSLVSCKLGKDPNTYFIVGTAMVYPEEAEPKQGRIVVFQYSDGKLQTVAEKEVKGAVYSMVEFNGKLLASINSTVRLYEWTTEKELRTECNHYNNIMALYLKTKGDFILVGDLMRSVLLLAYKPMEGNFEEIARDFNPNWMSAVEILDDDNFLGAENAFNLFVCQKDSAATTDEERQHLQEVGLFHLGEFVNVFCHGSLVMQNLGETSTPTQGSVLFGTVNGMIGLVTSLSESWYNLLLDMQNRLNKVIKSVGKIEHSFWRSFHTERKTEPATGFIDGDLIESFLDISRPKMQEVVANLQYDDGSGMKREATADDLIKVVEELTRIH

DC50 [1] [nM] | DC50 [2] [nM] | DC50 [3] [nM] | DC50 [4] [nM] | Emax [5] [%] | DC50 [6] [nM] | Emax [7] [%] | DC50 [8] [nM] | Emax [9] [%] | Emax [10] [%] | HiBiT-Degradation A375.10 BRAF 2 hours IP (A375.10 cells, BRAF V600E, 2 hours, inflection point) | HiBiT-Degradation A375.10 BRAF 6 hours IP (A375.10 cells, BRAF V600E, 6 hours, inflection point) | HiBiT-Degradation A375.10 BRAF 24 hours IP (A375.10 cells, HiBiT, BRAF V600E, 24 hours) | DC50 (read-out: HiBiT-Degradation A375.10 BRAF 2 hours DC50, A375.10 cells, BRAF V600E, 2 hours) [nM] | DC50 (read-out: HiBiT-Degradation A375.10 BRAF 6 hours DC50, A375.10 cells, BRAF V600E, 6 hours) [nM] | DC50 (read-out: HiBiT-Degradation A375.10 BRAF 24 hours DC50, A375.10 cells, HiBiT, BRAF V600E, 24 hours) [nM] | SMILES
< 1000 | < 1000 | < 1000 | < 1000 | < 50 | < 1000 | < 50 | < 1000 | < 50 | – | – | – | – | – | – | – | CCN(C)S(=O)(=O)Nc1ccc(F)c(Oc2ccc3ncc([C@H]4COC5(CCN(C6CCC(c7cc8c(cc7F)c(N7CCC(=O)NC7=O)nn8C)CC6)CC5)C4)nc3c2)c1C#N (single isomer, unassigned) [Compound 48]
< 1000 | < 1000 | < 1000 | < 1000 | < 50 | < 1000 | < 50 | < 1000 | – | < 50 | – | – | – | – | – | – | CCN(C)S(=O)(=O)Nc1ccc(F)c(Oc2ccc3ncn([C@H]4COC5(CCN(C6CCC(c7ccc(NC8CCC(=O)NC8=O)cc7F)CC6)CC5)C4)c(=O)c3c2F)c1C#N (single isomer, unassigned) [Compound 50]
< 1000 | < 1000 | < 1000 | < 1000 | < 50 | < 1000 | < 50 | < 1000 | – | < 50 | – | – | – | – | – | – | CCN(C)S(=O)(=O)Nc1ccc(F)c(Oc2ccc3ncn([C@@H]4COC5(CCN(C6CCC(c7ccc(NC8CCC(=O)NC8=O)cc7F)CC6)CC5)C4)c(=O)c3c2F)c1C#N (single isomer, unassigned) [Compound 52]
< 1000 | < 1000 | < 1000 | < 1000 | < 50 | < 1000 | < 50 | < 1000 | < 50 | – | – | – | – | – | – | – | CCN(C)S(=O)(=O)Nc1ccc(F)c(Oc2ccc3ncc([C@@H]4COC5(CCN(C6CCC(c7cc8c(cc7F)c(N7CCC(=O)NC7=O)nn8C)CC6)CC5)C4)nc3c2)c1C#N (single isomer, unassigned) [Compound 54]
< 1000 | < 1000 | < 1000 | < 1000 | < 50 | < 1000 | < 50 | < 1000 | < 50 | – | – | – | – | – | – | – | CCN(C)S(=O)(=O)Nc1ccc(F)c(Oc2ccc3ncc([C@H]4COC5(CCN(C6CCC(c7ccc(NC8CCC(=O)NC8=O)cc7F)CC6)CC5)C4)nc3c2)c1C#N (single isomer, unassigned) [Compound 58]
< 1000 | < 1000 | < 1000 | < 1000 | < 50 | < 1000 | < 50 | < 1000 | < 50 | – | – | – | – | – | – | – | CCN(C)S(=O)(=O)Nc1ccc(F)c(Oc2ccc3ncc([C@@H]4COC5(CCN(C6CCC(c7ccc(NC8CCC(=O)NC8=O)cc7F)CC6)CC5)C4)nc3c2)c1C#N (single isomer, unassigned) [Compound 60]
< 1000 | < 1000 | < 1000 | < 1000 | < 50 | < 1000 | < 50 | < 1000 | – | < 50 | – | – | – | – | – | – | CCN(C)S(=O)(=O)Nc1ccc(F)c(Oc2ccc3ncn([C@H]4COC5(CCN(C6CC(c7ccc(NC8CCC(=O)NC8=O)cc7F)C6)CC5)C4)c(=O)c3c2)c1C#N (single isomer, unassigned) [Compound 62]
< 1000 | < 1000 | < 1000 | < 1000 | < 50 | < 1000 | < 50 | < 1000 | – | < 50 | – | – | – | – | – | – | CCN(C)S(=O)(=O)Nc1ccc(F)c(Nc2ccc3ncn([C@H]4COC5(CCN(C6CCC(c7cc8c(cc7F)c(N7CCC(=O)NC7=O)nn8C)CC6)CC5)C4)c(=O)c3c2)c1C#N (single isomer, unassigned) [Compound 64]
< 1000 | < 1000 | < 1000 | < 1000 | < 50 | < 1000 | < 50 | < 1000 | – | < 50 | – | – | – | – | – | – | CCN(C)S(=O)(=O)Nc1ccc(F)c(Nc2ccc3ncn([C@H]4COC5(CCN(C6CCC(c7cc8c(cc7F)c(N7CCC(=O)NC7=O)nn8C)CC6)CC5)C4)c(=O)c3c2F)c1C#N (single isomer, unassigned) [Compound 67]
– | – | – | – | < 50 | – | < 50 | – | – | < 50 | *** (<=1 μM) | *** (<=1 μM) | *** (<=1 μM) | < 1000 | < 1000 | < 1000 | CCN(C)S(=O)(=O)Nc1ccc(F)c(Oc2ccc3ncn([C@H]4COC5(CCN(C6CC(c7cc8c(cc7F)c(N7CCC(=O)NC7=O)nn8C)C6)CC5)C4)c(=O)c3c2)c1C#N (single isomer, unassigned) [Compound 70]
< 1000 | < 1000 | < 1000 | < 1000 | < 50 | < 1000 | < 50 | < 1000 | – | < 50 | – | – | – | – | – | – | CCN(C)S(=O)(=O)Nc1ccc(F)c(Oc2ccc3ncn([C@H]4COC5(CCN(C6CCC(c7cc8c(cc7F)c(N7CCC(=O)NC7=O)nn8C)CC6)CC5)C4)c(=O)c3c2)c1F (single isomer, unassigned) [Compound 71]
< 1000 | < 1000 | < 1000 | < 1000 | < 50 | < 1000 | < 50 | < 1000 | – | < 50 | – | – | – | – | – | – | CN(CCO)S(=O)(=O)Nc1ccc(F)c(Oc2ccc3ncn([C@H]4COC5(CCN(C6CCC(c7cc8c(cc7F)c(N7CCC(=O)NC7=O)nn8C)CC6)CC5)C4)c(=O)c3c2)c1C#N (single isomer, unassigned) [Compound 73]
< 1000 | < 1000 | < 1000 | < 1000 | < 50 | < 1000 | < 50 | < 1000 | – | < 50 | – | – | – | – | – | – | CN(CCO)S(=O)(=O)Nc1ccc(F)c(Oc2ccc3ncn([C@H]4COC5(CCN(C6CCC(c7ccc(NC8CCC(=O)NC8=O)cc7F)CC6)CC5)C4)c(=O)c3c2)c1C#N (single isomer, unassigned) [Compound 76]
< 1000 | < 1000 | < 1000 | < 1000 | < 50 | < 1000 | < 50 | < 1000 | – | < 50 | – | – | – | – | – | – | CCN(C)S(=O)(=O)Nc1ccc(F)c(Oc2ccc3ncn([C@H]4COC5(CCN(C6CCC(c7ccc(NC8CCC(=O)NC8=O)cc7F)CC6)CC5)C4)c(=O)c3c2)c1F (single isomer, unassigned) [Compound 78]
< 1000 | < 1000 | < 1000 | < 1000 | < 50 | < 1000 | < 50 | < 1000 | – | < 50 | – | – | – | – | – | – | CN(CCO)S(=O)(=O)Nc1ccc(F)c(Oc2ccc3ncn(C4CC5(CCN(C6CCC(c7ccc(NC8CCC(=O)NC8=O)cc7F)CC6)CC5)C4)c(=O)c3c2)c1C#N (single isomer, unassigned) [Compound 79, 6-[2-cyano-6-fluoro-3-[[2-hydroxyethyl(methyl)sulfamoyl]amino]phenoxy]-3-[7-[4-[4-[(2,6-dioxo-3-piperidyl)amino]-2-fluoro-phenyl]cyclohexyl]-7-azaspiro[3.5]nonan-2-yl]-4-oxo-quinazoline]

From patent US20260297060A1, “COMPOUNDS FOR THE DEGRADATION OF MUTANT BRAF” (C4 THERAPEUTICS, INC., priority 2023, published 2026)
